Consider eight compounds from patent publication US20250154131A1 (HAINAN SIMCERE PHARMACEUTICAL CO., LTD., priority 2021, published 2025).

The experiment deals with SARS-COV-2 3CL Protease (Severe acute respiratory syndrome coronavirus 2 (2019-nCoV) (SARS-CoV-2), UniProt P0DTD1). As to the kind of experiment: biochemical. The format is biochemical. The settings on record: recombinant MBP-tagged 3CL protease, 30 min preincubation.

For the compound `CC1(C)[C@@H]2[C@@H](C(=O)N[C@H](C#N)C[C@@H]3CCNC3=O)N(C(=O)C(NC(=O)C(F)(F)F)C3CC4(CCC4)C3)C[C@@H]21` (stereo partly drawn) [Compound 3, (1R,2S,5S)—N—((S)-1-cyano-2-((S)-2-carbonylpyrrolidin-3-yl)ethyl)-6,6-dimethyl-3-(2-(spiro[3.3]heptan-2-yl)-2-(2,2,2-trifluoroacetamido)acetyl)-3-azabicyclo[3.1.0]hexane-2-carboxamide], the IC50 (class symbol column) was 100 to 1000 nM and the IC50 (numeric column) turned out to be 525 nM.

As for `CC1(C)[C@@H]2[C@@H](C(=O)N[C@H](C#N)C[C@@H]3CCNC3=O)N(C(=O)[C@H](Cc3ccc4ccccc4c3)NC(=O)C(F)(F)F)C[C@@H]21` [Compound 4, (1R,2S,5S)—N—((S)-1-Cyano-2-((S)-2-carbonylpyrrolidin-3-yl)ethyl)-6,6-dimethyl-3-((S)-3-(naphthalen-2-yl)-2-(2,2,2-trifluoroacetamido)propanoyl)-3-azabicyclo[3.1.0]hexane-2-carboxamide], the IC50 is 100 to 1000 nM (class symbol column) and 273 nM (numeric column).

Consider `CC1(C)[C@@H]2[C@@H](C(=O)N[C@H](C#N)CC3C(=O)Nc4ccccc43)N(C(=O)[C@@H](NC(=O)C(F)(F)F)C34CC5CC(CC(O)(C5)C3)C4)C[C@@H]21` (stereo partly drawn) [Compound 5, (1R,2S,5S)—N-((1S)-1-Cyano-2-(2-carbonylindolin-3-yl)ethyl)-3-((S)-2-((1r,3R,5R,7S)-3-hydroxyadamantan-1-yl)-2-(2,2,2-trifluoroacetamido)acetyl)-6,6-dimethyl-3-azabicyclo[3.1.0]hexane-2-carboxamide], for which the IC50 is, setting by setting: (class symbol column) below 100 nM; (numeric column) 69.8 nM.

In the case of `CN(C)C1CCC(C(NC(=O)C(F)(F)F)C(=O)N2C[C@H]3[C@@H]([C@H]2C(=O)N[C@H](C#N)C[C@@H]2CCNC2=O)C3(C)C)CC1` (stereo partly drawn) [Compound 6, (1R,2S,5S)—N—((S)-1-cyano-2-((S)-2-oxopyrrolidin-3-yl)ethyl)-3-(2-(4-(dimethylamino)cyclohexane)-2-(2,2,2-trifluoroacetamido)acetyl)-6,6-dimethyl-3-azabicyclo[3.1.0]cyclohexane-2-carboxamide], the IC50 by setting is: (class symbol column) 100 to 1000 nM; (numeric column) 449 nM.

`CN(C)CCCC[C@H](NC(=O)C(F)(F)F)C(=O)N1C[C@H]2[C@@H]([C@H]1C(=O)N[C@H](C#N)C[C@@H]1CCNC1=O)C2(C)C` [Compound 7, (1R,2S,5S)—N—((S)-1-cyano-2-((S)-2-oxopyrrolidin-3-yl)ethyl)-3-(N^6,N^6-dimethyl-N^2-(2,2,2-trifluoroacetyl)-L-lysyl)-6,6-dimethyl-3-azabicyclo[3.1.0]cyclohexane-2-carboxamide]: the IC50 is, setting by setting: (class symbol column) 1000 to 10000 nM; (numeric column) 1110 nM.

In the case of `CC(C)(C)[C@H](NC(=O)C(F)(F)F)C(=O)N1C[C@H]2[C@@H]([C@H]1C(=O)N[C@H](C#N)CC1C(=O)Nc3ncccc31)C2(C)C` (stereo partly shown) [Compound 8], the IC50 (class symbol column) was below 100 nM and the IC50 (numeric column) amounted to 33.4 nM.

As to `CC(C)(C)[C@H](NC(=O)C(F)(F)Cl)C(=O)N1C[C@H]2[C@@H]([C@H]1C(=O)N[C@H](C#N)CC1C(=O)Nc3ccccc31)C2(C)C` (stereo partly drawn) [Compound 9, (1R,2S,5S)-3-((S)-2-(2-Chloro-2,2-difluoroacetamido)-3,3-dimethylbutanoyl)-N-((1S)-1-cyano-2-(2-oxoindol-3-yl)ethyl)-6,6-dimethyl-3-azabicyclo[3.1.0]hexane-2-carboxamide], the IC50 is, setting by setting: (class symbol column) below 100 nM; (numeric column) 25.2 nM.

As to `CC1(C)[C@@H]2[C@@H](C(=O)N[C@H](C#N)C[C@@H]3CCNC3=O)N(C(=O)[C@@H](NC(=O)C(F)(F)F)C34C[C@@H]5C[C@@H](CC(O)(C5)C3)C4)C[C@@H]21` [Compound 10, (1R,2S,5S)—N—((S)-1-Cyano-2-((S)-2-oxopyrrolidin-3-yl)ethyl)-3-((S)-2-((1R,3R,5R,7S)-3-hydroxyadamantan-1-yl)-2-(2,2,2-trifluoroacetamido)acetyl)-6,6-dimethyl-3-azabicyclo[3.1.0]hexane-2-carboxamide], the IC50 runs as follows: (class symbol column) below 100 nM; (numeric column) 69.8 nM.

By IC50 is commonly meant the concentration at which inhibition is half-maximal.
